Laboratory results: patent publication US20130209439A1, “INHIBITORS OF PDE4 BINDING TO HSP20” (THE UNIVERSITY COURT OF THE UNIVERSITY OF GLASGOW, priority 2010, published 2013)
Where no end group is shown, it is not given here.

Test system: neonatal cardiac myocytes
Assay: Cardiac myocyte size by xCELLigence impedance (normalised cell index)
Type: cell-based, rat
Conditions: 24 hour isoprenaline 10 μM, 30 min pre-treatment with 10 μM peptide
Description: FIG. 7. Peptide disruption of the PDE4D-HSP20 complex attenuates the hypertrophic response triggered by constant […]-agonist treatment. A, Upper panel. The area covered by isolated cardiac myocytes was used as a measure of cell size. Lower panel, Graphical depiction of the mean areas (N=100) of cells following 24 hours of indicated treatments. B, impedance measurements were used to calculate continuous normalised cell index using exCELLigence technology Normalised mean (n=4) cell index after 24 hours of indicated treatments.
The E-Plate 96 (Roche) was used for these experiments^45. This comprises a 96-well plate with integral sensor electrode arrays to measure cell impedance. […] E-plate 96 is a 96-well microtiter plate with incorporated gold cell sensor arrays in the bottom, which allows impedance inside each well to be monitored and assayed in real time. […] The impedance measured between electrodes in an individual well depends on electrode geometry, ion concentration in the well and whether or not cells are attached to the electrodes^45. In the absence of cells, electrode impedance is mainly determined by the ion environment both at the electrode/solution interface and in the bulk solution. […] Small changes in impedance can also be recorded when cells temporally change shape or size in response to agonists^46,57. […]

Substance: Peptide 906: stearoylated, cell-permeable disrupter peptide of PDE4D5 residues E468-K492 (SEQ ID NO: 36) (ENHHLAVGFKLLQEENSDIFQNLTK; also: stearoylated, site not given here)
- cell size (normalised cell index, impedance) of cardiac myocytes: could be rescued
